Results published in patent US20140275094A1, “METHOD FOR TREATING PULMONARY ARTERIAL HYPERTENSION IN A PATIENT NOT HAVING IDIOPATHIC PULMONARY FIBROSIS” (GILEAD SCIENCES, INC., priority 2012, published 2014).

What was measured:
human hepatocytes = settings: cited from earlier work
[1] = target: T1, human bile salt export pump (BSEP) (Homo sapiens, UniProt O95342); assay: Inhibition of hepatic transporter BSEP, Sf9 cell membrane vesicles; assay type: biochemical
T1 construct: expressed in transfected cells; host or cells: Sf9 cell membrane vesicles
Protocol: (§1) Inhibition constants (IC50) were measured for human bile salt export pump (BSEP), sodium taurocholate cotransporting polypeptide (NTCP), multidrug resistance protein 2 (MRP2), P-glycoprotein (Pgp), breast cancer resistance protein (BCRP), organic anion-transporting polypeptide 1B1 (OATP1B1), and OATP1B3 in transfected cell-lines. Known inhibitors were used as positive controls.

OATP1B3 = target: T2, OATP1B3 (Homo sapiens, UniProt Q9NPD5); assay: Inhibition of OATP1B3, transfected CHO cells; assay type: cell-based; settings: OAT1B3
T2 construct: expressed in transfected cells; host or cells: CHO
T2 sequence (Q9NPD5 1-702): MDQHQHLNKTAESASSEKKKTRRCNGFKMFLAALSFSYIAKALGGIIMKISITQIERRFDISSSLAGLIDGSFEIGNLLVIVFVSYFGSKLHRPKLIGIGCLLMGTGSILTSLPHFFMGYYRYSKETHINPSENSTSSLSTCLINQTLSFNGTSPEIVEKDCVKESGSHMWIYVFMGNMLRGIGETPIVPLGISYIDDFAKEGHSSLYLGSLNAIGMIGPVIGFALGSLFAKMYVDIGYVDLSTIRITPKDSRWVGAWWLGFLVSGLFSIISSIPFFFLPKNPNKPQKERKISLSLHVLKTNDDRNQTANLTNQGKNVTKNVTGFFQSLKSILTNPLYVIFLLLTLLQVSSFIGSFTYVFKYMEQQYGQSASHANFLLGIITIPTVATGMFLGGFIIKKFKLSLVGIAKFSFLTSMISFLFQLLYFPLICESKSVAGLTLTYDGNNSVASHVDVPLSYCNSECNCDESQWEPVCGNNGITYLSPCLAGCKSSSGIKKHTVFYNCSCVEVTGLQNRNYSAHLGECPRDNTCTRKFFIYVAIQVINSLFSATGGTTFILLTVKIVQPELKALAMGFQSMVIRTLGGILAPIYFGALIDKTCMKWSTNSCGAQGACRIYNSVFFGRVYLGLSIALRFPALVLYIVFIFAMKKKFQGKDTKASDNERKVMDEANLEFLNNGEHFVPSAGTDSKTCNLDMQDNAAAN
Protocol: as §1

[2] = target: T3, sodium taurocholate cotransporting polypeptide (NTCP) (Homo sapiens, UniProt Q14973); assay: Inhibition of hepatic transporter NTCP, transfected CHO cells; assay type: cell-based
T3 construct: expressed in transfected cells; host or cells: Chinese Hamster Ovary (CHO)
T3 sequence (Q14973 1-349): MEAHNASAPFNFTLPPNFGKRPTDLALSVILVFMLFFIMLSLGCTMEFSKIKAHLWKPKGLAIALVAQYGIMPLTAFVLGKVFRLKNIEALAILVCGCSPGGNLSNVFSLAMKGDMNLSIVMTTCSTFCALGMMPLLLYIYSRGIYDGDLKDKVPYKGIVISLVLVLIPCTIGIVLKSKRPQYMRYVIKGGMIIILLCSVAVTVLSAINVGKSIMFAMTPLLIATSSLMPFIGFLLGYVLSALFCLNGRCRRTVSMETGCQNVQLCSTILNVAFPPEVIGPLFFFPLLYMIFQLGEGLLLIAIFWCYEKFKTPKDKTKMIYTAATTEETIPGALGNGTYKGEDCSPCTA
Protocol: as §1

[3] = target: T4, organic anion-transporting polypeptide 1B1 (OATP1B1) (Homo sapiens, UniProt Q9Y6L6); assay: Inhibition of OATP1B1, transfected CHO cells; assay type: cell-based
T4 construct: expressed in transfected cells; host or cells: CHO
T4 sequence (Q9Y6L6 1-691): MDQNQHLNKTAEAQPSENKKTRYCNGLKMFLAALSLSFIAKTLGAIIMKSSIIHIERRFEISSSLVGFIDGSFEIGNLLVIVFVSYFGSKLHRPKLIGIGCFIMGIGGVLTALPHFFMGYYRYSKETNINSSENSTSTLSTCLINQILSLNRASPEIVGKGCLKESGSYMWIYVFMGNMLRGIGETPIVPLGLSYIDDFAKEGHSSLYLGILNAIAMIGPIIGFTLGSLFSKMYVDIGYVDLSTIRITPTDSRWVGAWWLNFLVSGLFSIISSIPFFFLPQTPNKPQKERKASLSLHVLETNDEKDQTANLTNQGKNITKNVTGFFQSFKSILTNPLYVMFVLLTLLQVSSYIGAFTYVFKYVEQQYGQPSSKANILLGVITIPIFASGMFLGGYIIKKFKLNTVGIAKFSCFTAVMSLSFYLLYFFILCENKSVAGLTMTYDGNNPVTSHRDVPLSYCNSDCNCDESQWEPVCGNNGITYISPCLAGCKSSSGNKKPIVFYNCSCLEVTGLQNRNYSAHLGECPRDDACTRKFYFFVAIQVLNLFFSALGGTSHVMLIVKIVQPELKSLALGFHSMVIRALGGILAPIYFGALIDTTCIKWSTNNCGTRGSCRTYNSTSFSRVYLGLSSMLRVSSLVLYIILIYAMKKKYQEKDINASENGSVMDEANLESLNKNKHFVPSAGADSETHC
Protocol: as §1

T1 sequence (O95342 whole entry): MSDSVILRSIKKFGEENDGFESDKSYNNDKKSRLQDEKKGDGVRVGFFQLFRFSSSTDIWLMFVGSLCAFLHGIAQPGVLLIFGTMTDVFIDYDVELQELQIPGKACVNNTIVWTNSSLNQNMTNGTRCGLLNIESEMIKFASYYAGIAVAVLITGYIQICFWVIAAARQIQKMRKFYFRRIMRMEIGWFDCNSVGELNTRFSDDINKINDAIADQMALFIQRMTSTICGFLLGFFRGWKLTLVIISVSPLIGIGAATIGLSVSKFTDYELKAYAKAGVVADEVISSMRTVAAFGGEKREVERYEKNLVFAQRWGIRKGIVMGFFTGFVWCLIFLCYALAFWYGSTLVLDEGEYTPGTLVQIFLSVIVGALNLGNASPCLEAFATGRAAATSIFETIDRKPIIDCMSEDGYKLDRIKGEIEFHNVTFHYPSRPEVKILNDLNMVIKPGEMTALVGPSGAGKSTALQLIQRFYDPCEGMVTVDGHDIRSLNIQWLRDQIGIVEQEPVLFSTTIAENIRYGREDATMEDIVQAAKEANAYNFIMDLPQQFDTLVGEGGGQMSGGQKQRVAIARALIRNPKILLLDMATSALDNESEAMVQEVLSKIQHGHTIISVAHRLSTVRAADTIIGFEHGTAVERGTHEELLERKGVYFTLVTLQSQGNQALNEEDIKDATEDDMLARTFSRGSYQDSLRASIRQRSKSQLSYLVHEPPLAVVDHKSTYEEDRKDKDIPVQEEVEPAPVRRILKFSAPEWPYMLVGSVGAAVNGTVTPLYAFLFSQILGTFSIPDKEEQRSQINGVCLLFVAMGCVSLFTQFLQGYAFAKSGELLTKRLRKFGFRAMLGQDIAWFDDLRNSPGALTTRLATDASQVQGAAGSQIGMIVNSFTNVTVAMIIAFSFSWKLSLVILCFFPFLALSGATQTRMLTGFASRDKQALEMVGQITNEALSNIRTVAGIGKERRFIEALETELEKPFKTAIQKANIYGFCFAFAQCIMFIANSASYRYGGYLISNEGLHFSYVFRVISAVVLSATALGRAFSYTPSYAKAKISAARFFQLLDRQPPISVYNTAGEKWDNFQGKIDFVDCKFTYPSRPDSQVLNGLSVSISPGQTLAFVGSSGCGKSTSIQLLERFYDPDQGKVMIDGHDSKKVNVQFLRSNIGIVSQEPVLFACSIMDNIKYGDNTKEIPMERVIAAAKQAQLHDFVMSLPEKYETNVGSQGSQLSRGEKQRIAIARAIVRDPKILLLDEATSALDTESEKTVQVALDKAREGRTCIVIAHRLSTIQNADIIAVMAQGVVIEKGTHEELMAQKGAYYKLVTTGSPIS

Q: Which “effect on hepatobiliary transporter activity” value (human hepatocytes) does the source give for `COc1ccccc1Oc1c(NS(=O)(=O)c2ccc(C(C)(C)C)cc2)nc(-c2ncccn2)nc1OCCO` [Bosentan] here?
A: decreased transporter activity to the greatest extent

Q: What about the “effect on BSEP” value [1] of the same molecule?
A: inhibition was observed

Q: What about the IC50 ([1]; BSEP) of the same molecule?
A: 54.4 µM

Q: And the IC50 (OATP1B3)?
A: 5.2 ± 2.1 µM

Q: And the “effect on NTCP” value [2]?
A: inhibition was observed

Q: What about the IC50 ([2]; NTCP) of the same molecule?
A: 36.5 µM

Q: What about the IC50 [3] of the same molecule?
A: 5 ± 2 µM

Q: For `COC(c1ccccc1)(c1ccccc1)[C@H](Oc1nc(C)cc(C)n1)C(=O)O` [Ambrisentan, (25)-2-[(4,6-dimethylpyrimidin-2-yl)oxy]-3-methoxy-3,3-diphenylpropanoic acid], which “effect on hepatobiliary transporter activity” value (human hepatocytes) is on record?
A: less potent

Q: And the “effect on BSEP” value [1]?
A: no measurable effect

Q: And the IC50 (OATP1B3)?
A: 44.6 ± 23.8 µM

Q: And the “effect on NTCP” value [2]?
A: no measurable effect

Q: What about the IC50 [3] of the same molecule?
A: 47 ± 21.3 µM
